Read-outs that look alike come from different tables or passages of the source.

Data set [1] is described as follows: Influence of food intake on absorption of clavulanic acid and amoxicillin (plasma pharmacokinetics after test tablet, Comparative Example A). The data set is classed as in vivo, human. The conditions noted are these: for AUC(0-inf) / Cmax / Tmax: human, plasma, oral, one test tablet. The method, then: An exploratory study involving 9 healthy volunteers receive the test product under fasted and fed conditions. The test product is AUGMENTIN™ XR as commercially available by Glaxosmithkline, and is an extended release tablet containing 1000 mg amoxicillin and 62.5 mg clavulanic acid wherein said tablet consists of a fast release layer comprising 562.5 mg as amoxicillin trihydrate and 62.5 mg clavulanic acid as clavulanate potassium salt, and of an extended release layer containing 437.5 mg amoxicillin as amoxicillin sodium salt. The test tablets are magnetically marked as described in Comparative Example B. The volunteers receive one test tablet together with 240 ml of non-carbonated water under the following conditions:
a) under fasting conditions: on one study day after a fasting period of at least 8 hours, b) at the beginning of a meal: on another study day after the first bite of a high […] standardized breakfast A, and c) under fed conditions: on still another study day 30 minutes after a high fat standardized breakfast B.
The standardized breakfast A consists of 2 slices of bread, 40 g cheese, 150 ml orange juice, 150 ml milk, and 20 g of cereals. The standardized breakfast B consists of 2 eggs fried in butter, 2 strips of bacon, 2 slices of toast with butter, 120 ml of hash brown potatoes and 240 ml of whole milk (3.5% fat).
(§1) Blood samples are taken before and 0.5, 1, 1.5, 2, 2.5, 3, 3.5, 4, 4.5, 5, 5.5, 6, 6.5, 7, 7.5, 8, 8.5, 9, 9.5, 10 and 12 hours after ingestion of the test tablet. Blood samples are centrifuged and stored at −80° C. Concentrations of both amoxicillin and clavulanic acid are determined according to known methods using a LC-MS/MS procedure (HPLC coupled Online with MS). Pharmacokinetic parameters are expressed as Cmax (maximal plasma concentration), AUC0→∞ (area under the plasma concentration-time curve extrapolated to infinity) and tmax (time of peak plasma concentration). Cmax and tmax as figuring in Tables 1 and 2 are determined from the 9 single values directly taken from the plasma-concentration-time curve. AUC0→tlast is calculated as follows: AUC0→∞=AUC0→tlast+AUCtlast→∞ wherein AUC0→tlast is the area under the plasma concentration-time curve from time of administration until time of last quantifiable concentration measured, i.e. Ct, and is calculated by using the linear trapezoid rule. AUCtlast→∞ is the extrapolated area to infinity that equals to Ct/Kel wherein Kel is the elimination rate constant. The results are reported using descriptive statistics.
Tables 1 and 2 show the pharmacokinetic parameters of clavulanic acid and amoxicillin, respectively, determined in human plasma from the blood samples taken after administration of one test tablet under fasting or fed conditions or at the beginning of a meal (values are mean values of 9 volunteers).

A short description of data set [2]: Crossover bioavailability study of tablet B before and tablet A after food intake vs both after food intake (Example 3). As to conditions: data not shown. It counts as in vivo, human. The method, then:
In this study 20 subjects are randomized in balanced manner into 2 sequences. The subjects in the sequence 1 obtain tablet B under fasting conditions and then tablet A 30 minutes after beginning of food intake whereas the subjects in the second sequence are dosed with both tablets (A and B) 30 minutes after beginning of food intake. The extended release tablet A contains 1125 mg amoxicillin whereas tablet B is an immediate release formulation comprising 875 mg as amoxicillin trihydrate and 125 mg clavulanic acid as clavulanate potassium salt. The volunteers receive […] of non-carbonated water to each tablet administered.
The standardized breakfast (before or between the dosing) consists of 2 eggs fried in butter, 2 strips of bacon, 2 slices of toast with butter, 120 ml of hash brown potatoes and 240 ml of whole milk (3.5% fat).
as §1, with “plasma concentration) and” for “plasma concentration),”, “infinity) which” for “infinity) and tmax (time of peak plasma concentration). Cmax and tmax as figuring in Tables 1 and 2”, “determined analogously as described above in comparative example A. Cmax is” for “determined from the 9 single values”, “curve. AUC0→∞” for “curve. AUC0→tlast”, “constant.” for “constant. The results are reported using descriptive statistics.”

Data set [3] can be described thus: More extensive study involving 70 volunteers with conventional test tablet without magnetic markers. It counts as in vivo, human. As to conditions: test tablet at the beginning of a meal, data not shown. The method, then:
If a conventional combination of an acid labile active ingredient such as clavulanic acid and of an acid resistant active ingredient such as amoxicillin is administered according to a conventional scheme, namely both active ingredients simultaneously, concomitant food intake seems to strongly influence the plasma concentrations and thus bioavailability of the 2 active ingredients. This has been observed in the herein described exploratory study for a conventional combination in the form of a bilayer tablet comprising clavulanic acid for immediate release and amoxicillin for both immediate and extended release such as the herein described test tablet.

The conditions of data set [4]: co-administered e.g. with sodium bicarbonate; compared to fasting; cited from earlier work.

Regarding `CC1(C)S[C@@H]2[C@H](NC(=O)[C@H](N)c3ccc(O)cc3)C(=O)N2[C@H]1C(=O)O` [amoxicillin], the AUC of amoxicillin result is “lies in between that observed for the fasting and for the fed state” in data set [1] (at the beginning of a meal compared with fasting and fed state); “significantly reduced” in data set [1] (fasting conditions compared with fed conditions). Moreover, in data set [1] (fed conditions compared with fasting conditions), the “Plasma concentrations of amoxicillin (FIG. 2): absorption” value is listed as “delayed absorption”. For the same compound, the tmax of amoxicillin entry in data set [1] (fed conditions compared with fasting or beginning of a meal) is “significantly delayed”. Moreover, the AUC(0-inf) in data set [1] (amoxicillin in human plasma, at the beginning of a meal, read-out: AUC0→∞, mean value ± s (converted)) is 40900 ng·h/mL; in data set [1] (amoxicillin in human plasma, at the beginning of a meal, read-out: AUC0→∞, median (converted)), 39100 ng·h/mL; in data set [1] (amoxicillin in human plasma, fasting conditions, 9 volunteers, read-out: AUC0→∞, mean value ± s (converted)), 30900 ng·h/mL; in data set [1] (amoxicillin in human plasma, fasting conditions, read-out: AUC0→∞, median (converted)) it was 29000 ng·h/mL; in data set [1] (amoxicillin in human plasma, fed conditions (30 minutes after high fat breakfast), read-out: AUC0→∞, mean value ± s (converted)), 43400 ng·h/mL; in data set [1] (amoxicillin in human plasma, fed conditions, read-out: AUC0→∞, median (converted)), 42100 ng·h/mL. Moreover, the Cmax (commonly the peak of the concentration-time curve) in data set [1] (amoxicillin in human plasma, at the beginning of a meal, read-out: Cmax, mean value ± s) is 10400 ± 2000 ng/mL; in data set [1] (amoxicillin in human plasma, at the beginning of a meal, read-out: Cmax, median), 9870 ng/mL; in data set [1] (amoxicillin in human plasma, fasting conditions, read-out: Cmax, mean value ± s) it was 10300 ± 1200 ng/mL; in data set [1] (amoxicillin in human plasma, fasting conditions, read-out: Cmax, median), 10300 ng/mL; in data set [1] (amoxicillin in human plasma, fed conditions, read-out: Cmax, mean value ± s) it was 9880 ± 2300 ng/mL; in data set [1] (amoxicillin in human plasma, fed conditions, read-out: Cmax, median) it was 9830 ng/mL. The Tmax – broadly, the time from dosing to the highest level – was around 1.38 h in data set [1] (amoxicillin in human plasma, at the beginning of a meal, read-out: tmax, mean value ± s (converted)); 1 h in data set [1] (amoxicillin in human plasma, at the beginning of a meal, read-out: tmax, median (converted)); around 1.5 h in data set [1] (amoxicillin in human plasma, fasting conditions, read-out: tmax, mean value ± s (converted)); 1.5 h in data set [1] (amoxicillin in human plasma, fasting conditions, read-out: tmax, median (converted)); 2.28 h in data set [1] (amoxicillin in human plasma, fed conditions, read-out: tmax, mean value ± s (converted)); 1.5 h in data set [1] (amoxicillin in human plasma, fed conditions, read-out: tmax, median (converted)). Besides, the “Maximum plasma concentrations Cmax of amoxicillin” value in data set [1] (test tablet after food intake compared with fasting) is reported as “slightly lower”. Besides, the “Initial maximum plasma concentrations Cmax of amoxicillin” value in data set [2] (condition a) vs condition b)) is given as “higher initial maximum plasma concentrations”. In addition, in data set [2] (condition a) vs condition b)), the “Plasma level of amoxicillin (duration)” value is on record as “slightly prolonged”.
Regarding `O=C(O)[C@H]1/C(=C/CO)O[C@@H]2CC(=O)N21` [clavulanic acid], the “Cmax and AUC of clavulanic acid” value in data set [1] (fed state compared with fasting conditions) is listed as “significantly reduced”. Also, the AUC(0-inf) was 3280 ng·h/mL in data set [1] (clavulanic acid in human plasma, at the beginning of a meal, read-out: AUC0→∞, mean value ± s (converted)); 2880 ng·h/mL in data set [1] (clavulanic acid in human plasma, at the beginning of a meal, read-out: AUC0→∞, median (converted)); 3300 ng·h/mL in data set [1] (clavulanic acid in human plasma, fasting conditions, 9 volunteers, read-out: AUC0→∞, mean value ± s (converted)); 3020 ng·h/mL in data set [1] (clavulanic acid in human plasma, fasting conditions, read-out: AUC0→∞, median (converted)); 2200 ng·h/mL in data set [1] (clavulanic acid in human plasma, fed conditions (30 minutes after high fat breakfast), read-out: AUC0→∞, mean value ± s (converted)); 2080 ng·h/mL in data set [1] (clavulanic acid in human plasma, fed conditions, read-out: AUC0→∞, median (converted)). Moreover, the Cmax stood at 1390 ± 400 ng/mL in data set [1] (clavulanic acid in human plasma, at the beginning of a meal, read-out: Cmax, mean value ± s); 1240 ng/mL in data set [1] (clavulanic acid in human plasma, at the beginning of a meal, read-out: Cmax, median); 1400 ± 400 ng/mL in data set [1] (clavulanic acid in human plasma, fasting conditions, 9 volunteers, read-out: Cmax, mean value ± s); 1350 ng/mL in data set [1] (clavulanic acid in human plasma, fasting conditions, read-out: Cmax, median); 970 ± 600 ng/mL in data set [1] (clavulanic acid in human plasma, fed conditions, read-out: Cmax, mean value ± s); 830 ng/mL in data set [1] (clavulanic acid in human plasma, fed conditions, read-out: Cmax, median). Moreover, the Tmax is 1.38 h in data set [1] (clavulanic acid in human plasma, at the beginning of a meal, read-out: tmax, mean value ± s (converted)); 1.5 h in data set [1] (clavulanic acid in human plasma, at the beginning of a meal, read-out: tmax, median (converted)); around 1.5 h in data set [1] (clavulanic acid in human plasma, fasting conditions, 9 volunteers, read-out: tmax, mean value ± s (converted)); 1.5 h in data set [1] (clavulanic acid in human plasma, fasting conditions, read-out: tmax, median (converted)); 2.07 h in data set [1] (clavulanic acid in human plasma, fed conditions, read-out: tmax, mean value ± s (converted)); 2 h in data set [1] (clavulanic acid in human plasma, fed conditions, read-out: tmax, median (converted)). The “Plasma concentrations of clavulanic acid (FIG. 1)” value in data set [1] (test tablet taken after a meal (breakfast B) compared with fasting) was “significantly reduced”. Moreover, the “Bioavailability of clavulanic acid” value in data set [3] is listed as “slightly decreased”. Also, the “Plasma concentrations of clavulanic acid” value in data set [2] (condition a) tablet B fasting, tablet A 30 minutes after beginning of food intake, vs b) both tablets 30 minutes after beginning of food intake) was “significantly higher”. For the same compound, the “Cmax and AUC0→∞ of clavulanic acid” value in data set [2] (condition a) vs condition b)) is “significantly higher”.
Take `COc1ccc2[nH]c([S+]([O-])Cc3ncc(C)c(OC)c3C)nc2c1` (stereo not shown) [omeprazole]: the “Bioavailability, effect of food ingestion” value in data set [4] is listed as “reduces bioavailability”.

Source of the values: patent US20100040598A1, “KIT OF PARTS COMPRISING AN ACID LABILE AND AN ACID RESISTANT PHARMACEUTICALLY ACTIVE INGREDIENT” (priority 2006, published 2010).
